Results published in patent US12480089B2, “Antiviral treatment comprising Blis containing probiotic products” (BLIS TECHNOLOGIES LIMITED, priority 2020, dated 2025).

Experiments:
Type in all cases: cell-based
Influenza A virus H3N2 = test: Neutral red CPE assay, Influenza A in MDCK cells; details: strain samples: resuspension medium DMEM, time to produce antiviral activity 6
Description: The antiviral activity of S. salivarius sample preparations were evaluated against severe acute respiratory syndrome coronavirus 2 (SARS-CoV-2) and Influenza A virus H3N2 in neutral red (NR) assays to evaluate inhibition of viral-induced cytopathic effect (CPE).
Neutral red assay: Samples were received frozen on dry ice and stored at −20° C. upon arrival. All 10 samples were serially diluted in test medium using 4 1:2 dilutions so that the starting (high) test concentration was 50% sample. Each dilution was added to 5 wells of a 96-well plate with 80-90% confluent Vero 76 (SARS-CoV-2) or MDCK (Influenza) cells.
Three wells of each dilution were infected with virus, and two wells remained uninfected as toxicity controls. On each plate, six untreated wells were infected as virus controls, and six untreated wells were left uninfected to use as cell controls.
Viruses were diluted to a specific 50% cell culture infectious dose (CCID50) per mL to achieve the lowest possible multiplicity of infection (MOI) that would yield >80% cytopathic effect (CPE) within 3-5 days. […]
Supernatant dye was removed, wells rinsed with PBS, and the incorporated dye was extracted in 50:50 Sorensen citrate buffer/ethanol for >30 minutes and the optical density was read on a spectrophotometer at 540 nm. […]

RSV (A2 strain) = details: MA-104, DMEM, max CPE day 6
[1] = tested on: influenza B (Brisbane/60/2008 strain); test: Neutral red CPE assay, influenza B in MDCK cells; details: DMEM + trypsin + EDTA, max CPE day 3
Description: K12 and M18 were tested for in vitro antiviral activity against RSV (A2 strain) and influenza B (Brisbane/60/2008 strain).
Samples were serially diluted using four 2-fold dilutions in media so that the starting (high) test concentration was 50%. Media for MDCK cells included DMEM+10 U/ml trypsin+1 ug/mL EDTA. Each dilution was added to 5 wells of a 96-well plate with 80-100% confluent cells. Three wells of each dilution were infected with virus, and two wells remained uninfected as toxicity controls. Six wells were infected and untreated as virus controls, and six wells were uninfected and untreated as cell controls. A positive control compound, ribavirin, was tested in parallel. Plates were incubated at 37±2° C., 5% CO2.
Once untreated virus control wells reached maximum CPE on the day indicated in the table below, plates were stained with neutral red dye for approximately 2 hours (±15 minutes). Supernatant dye was removed and wells rinsed with PBS, and the incorporated dye was extracted in 50:50 Sorensen citrate buffer/ethanol for >30 minutes and the optical density was read on a spectrophotometer at 540 nm.
The selective index (SI) is the CC50 divided by EC50.

[2] = tested on: SARS-CoV-2, USA-WA1/2020 strain

Row | Compound | SI Index (Influenza A virus H3N2) | SI Index (RSV (A2 strain)) | SI Index [1] | Round 1 virus titer ([2]; 30-minute contact at room temperature, 90% preparation and 10% virus solution, virus control 4.2) [log 10 CCID50 per 0.1 mL] | Round 2 Virus titer ([2]; 30-minute contact at room temperature, 90% preparation and 10% virus stock, virus control 4.0) [log 10 CCID50 per 0.1 mL] | Log Reduction value ([2]; Round 2, compared to virus control)
1 | NC(=O)c1ncn([C@@H]2O[C@H](CO)[C@@H](O)[C@H]2O)n1 [Ribavirin, ribavirin] | >590 | 14 | >320 | – | – | –
2 | CCO [Ethanol] | – | – | – | 1.1 | <0.67 | 3.33
